Results: US4525473A, “Cephalosporins” (Bristol-Myers Company, priority 1983, dated 1985)
Values after ≈ are worked out from the molar mass of the structure shown. Where two headings read alike, the source gives them in different places.

Legend:
Assay type in all cases: cell-based
[1] = test system: Cephalothin(CET)sensitive E. coli (2 strains), K. pneumoniae (1) and P. mirabilis (2); test: MIC by two-fold serial agar dilution in Mueller-Hinton agar, Gn-Ia; settings: for MIC: read-out: Geometric Mean of MIC
Description: (§1) In the primary evaluation of the compounds of this invention, the Minimum Inhibitory Concentrations (MIC's) of the compounds were determined by the two-fold serial agar dilution method in Mueller-Hinton agar against 32 strains of test organisms in six groups.
GnIa: Cephalothin(CET)sensitive E. coli (2 strains), K. pneumoniae (1) an […]

[2] = test system: M. morganii (1), E. cloacae (2) and S. marcescens (2); test: MIC by two-fold serial agar dilution in Mueller-Hinton agar, Gn-II; settings: for MIC: read-out: Geometric Mean of MIC
Description: as §1
GnII: M. morganii (1), E. cloacae (2) and S. marcescens (2)

P. aeruginosa = test: MIC by two-fold serial agar dilution in Mueller-Hinton agar, Gn-III; settings: for MIC: Pseudomonas aeruginosa, read-out: Geometric Mean of MIC
Description: as §1

[3] = test system: CETresistant E. coli (3) and K. pneumoniae (2); test: MIC by two-fold serial agar dilution in Mueller-Hinton agar, Gn-Ib; settings: for MIC: Escherichia coli, read-out: Geometric Mean of MIC
Description: as §1
GnIb: CETresistant E. coli (3) and K. pneumoniae (2)

PCresistant S. aureus = test: MIC by two-fold serial agar dilution in Mueller-Hinton agar, Gp-Ib; settings: for MIC: Staphylococcus aureus, read-out: Geometric Mean of MIC
Description: as §1
GpIb: PCresistant S. aureus

[4] = test system: Penicillin(PC)sensitive S. aureus; test: MIC by two-fold serial agar dilution in Mueller-Hinton agar, Gp-Ia; settings: for MIC: Staphylococcus aureus
Description: as §1
Gp-Ia: Penicillin(PC)sensitive S. aureus

[5] = Gn-Ia, 5 strains, CET-sensitive
[6] = Gn-III, 7 strains, P. aeruginosa
[7] = Gp-Ib, 5 strains, PC-resistant S. aureus
[8] = Gp-Ia, 5 strains, PC-sensitive S. aureus, read-out: Geometric Mean of MIC
[9] = Gn-Ib, 5 strains, CET-resistant
[10] = Gp-Ia, 5 strains, PC-sensitive S. aureus
[11] = read-out: Geometric Mean of MIC, Gp-Ia, 5 strains, PC-sensitive S. aureus

| Compound | MIC [1, 5] [µg/mL] | MIC ([2]; Gn-II, 5 strains) [µg/mL] | MIC (P. aeruginosa; [6]) [µg/mL] | MIC [3] [µg/mL] | MIC (PCresistant S. aureus; [7]) [µg/mL] | MIC [4, 8] [µg/mL] | MIC [3, 9] [µg/mL] | MIC [2] [µg/mL] | also measured |
| --- | --- | --- | --- | --- | --- | --- | --- | --- | --- |
| CO/N=C(\C(=O)NC1C(=O)N2C(C(=O)[O-])=C(C[N+]3(C)CCOCC3)CS[C@H]12)c1csc(N)n1 (stereo partly drawn) [Example 2, 7-[(Z)-2-(2-Aminothiazol-4-yl)-2-methoxyiminoacetamido]-3-(4-methyl-4-morpholinio)methyl-3-cephem-4-carboxylate] | 0.061 (≈ 0.123 µM) | 0.96 (≈ 1.93 µM) | 4 (≈ 8.06 µM) | 0.22 (≈ 0.443 µM) | 5 (≈ 10.1 µM) | 1.7 (≈ 3.42 µM) | – | – | – |
| CO/N=C(\C(=O)NC1C(=O)N2C(C(=O)[O-])=C(C[N+]3(C)CCOC3)CSC12)c1csc(N)n1 (single isomer, unassigned) [12 Isomer B] | – | – | – | – | – | – | – | – | MIC [1]: 0.04 µg/mL (≈ 0.0829 µM); Geometric Mean of MIC ([2]; Gn-II, 5 strains): 0.18 µg/mL; Geometric Mean of MIC (P. aeruginosa; [6]): 4.0 µg/mL; Geometric Mean of MIC [3, 9]: 0.21 µg/mL; Geometric Mean of MIC (PCresistant S. aureus; [7]): 4.4 µg/mL; Geometric Mean of MIC [4, 10]: 1.3 µg/mL |
| CO/N=C(\C(=O)NC1C(=O)N2C(C(=O)[O-])=C(C[N+]3(C)CCCCCC3)CS[C@H]12)c1csc(N)n1 (stereo partly drawn) [Example 7, 7-[(Z)-2-(2-Aminothiazol-4-yl)-2-methoxyiminoacetamido]-3-(1-methylhexahydroazepinio)methyl-3-cephem-4-carboxylate] | 0.05 (≈ 0.0983 µM) | 0.15 (≈ 0.295 µM) | 4.2 (≈ 8.26 µM) | – | 3.2 (≈ 6.29 µM) | 0.9 (≈ 1.77 µM) | 0.13 (≈ 0.256 µM) | – | – |
| 7-[(Z)-2-(2-Aminothiazol-4-yl)-2-methoxyiminoacetamido]-3-[(6-methyl-5,6,7,8-tetrahydro-6-[1,6]naphthylidinio)methyl]-3-cephem-4-carboxylate [Example 23] | – | – | – | – | – | – | – | – | Geometric Mean of MIC [1, 5]: 0.070 µg/mL; Geometric Mean of MIC ([2]; Gn-II, 5 strains): 0.96 µg/mL; Geometric Mean of MIC (P. aeruginosa; [6]): 6.3 µg/mL; Geometric Mean of MIC [3, 9]: 0.28 µg/mL; Geometric Mean of MIC (PCresistant S. aureus; [7]): 2.9 µg/mL; Geometric Mean of MIC [4, 10]: 1.4 µg/mL |
| CO/N=C(\C(=O)NC1C(=O)N2C(C(=O)[O-])=C(C[N+]3(C)Cc4ccccc4C3)CS[C@H]12)c1csc(N)n1 (stereo partly drawn) [Example 14, 7-[(Z)-2-(2-Aminothiazol-4-yl)-2-methoxyiminoacetamido]-3-[(2-methyl-2-benzo[c]pyrrolinio)methyl]-3-cephem-4-carboxylate] | 0.042 (≈ 0.0795 µM) | 0.13 (≈ 0.246 µM) | 7.7 (≈ 14.6 µM) | – | 1.7 (≈ 3.22 µM) | 0.51 (≈ 0.965 µM) | 0.13 (≈ 0.246 µM) | – | – |
| CO/N=C(\C(=O)NC1C(=O)N2C(C(=O)[O-])=C(C[N+]3(C)CCSC3)CSC12)c1csc(N)n1 (single isomer, unassigned) [13 Isomer A] | 0.046 (≈ 0.0923 µM) | – | 5.9 (≈ 11.8 µM) | – | 3.1 (≈ 6.22 µM) | 0.84 (≈ 1.68 µM) | – | – | Geometric Mean of MIC ([2]; Gn-II, 5 strains): 0.28 µg/mL; Geometric Mean of MIC [3, 9]: 0.28 µg/mL |
| CO/N=C(\C(=O)NC1C(=O)N2C(C(=O)[O-])=C(C[N+]3(C)CCN(C)CC3)CS[C@H]12)c1csc(N)n1 (stereo partly drawn) [Example 5, 7-[(Z)-2-(2-Aminothiazol-4-yl)-2-methoxyiminoacetamido]-3-(1,4-dimethyl-1-piperazinio)methyl-3-cephem-4-carboxylate] | 0.057 (≈ 0.112 µM) | 0.78 (≈ 1.53 µM) | – | – | 4.7 (≈ 9.22 µM) | 2.3 (≈ 4.51 µM) | 0.12 (≈ 0.235 µM) | – | MIC (P. aeruginosa): 3.6 µg/mL (≈ 7.06 µM) |
| CO/N=C(\C(=O)NC1C(=O)N2C(C(=O)[O-])=C(C[N+]3(CC(=O)O)CCCC3)CS[C@H]12)c1csc(N)n1 (stereo partly drawn) [Example 16, 7-[(Z)-2-(2-Aminothiazol-4-yl)-2-methoxyiminoacetamido]-3-[1-(carboxymethyl)pyrrolidinio]methyl-3-cephem-4-carboxylate] | – | – | 5.1 (≈ 9.72 µM) | 0.23 (≈ 0.438 µM) | 17 (≈ 32.4 µM) | 6.5 (≈ 12.4 µM) | – | 0.14 (≈ 0.267 µM) | MIC [1]: 0.02 µg/mL (≈ 0.0381 µM) |
| CO/N=C(\C(=O)NC1C(=O)N2C(C(=O)[O-])=C(C[N+]3(CCO)CCCC3)CSC12)c1csc(N)n1 (stereo not drawn) [Example 17] | 0.057 (≈ 0.112 µM) | – | 4.1 (≈ 8.03 µM) | 0.15 (≈ 0.294 µM) | 4.1 (≈ 8.03 µM) | 1.6 (≈ 3.13 µM) | – | 0.2 (≈ 0.392 µM) | – |
| CO/N=C(\C(=O)NC1C(=O)N2C(C(=O)[O-])=C(C[N+]3(C)CCC[C@H]3C(N)=O)CSC12)c1csc(N)n1 (single isomer, unassigned) [8 Isomer A] | 0.098 (≈ 0.187 µM) | 0.35 (≈ 0.668 µM) | 11 (≈ 21 µM) | – | 4.7 (≈ 8.98 µM) | 2.1 (≈ 4.01 µM) | 0.39 (≈ 0.745 µM) | – | – |
| CO/N=C(\C(=O)NC1C(=O)N2C(C(=O)[O-])=C(C[N+]3(C)CCCCC3)CS[C@H]12)c1csc(N)n1 (stereo partly drawn) [Example 1, 7-[(Z)-2-(2-Aminothiazol-4-yl)-2-methoxyiminoacetamido]-3-(1-methyl-1-piperidinio)methyl-3-cephem-4-carboxylate] | 0.03 (≈ 0.0607 µM) | 0.55 (≈ 1.11 µM) | 3.2 (≈ 6.47 µM) | 0.14 (≈ 0.283 µM) | 2.9 (≈ 5.86 µM) | – | – | – | MIC [4, 11]: 1.3 µg/mL (≈ 2.63 µM) |
| CO/N=C(\C(=O)NC1C(=O)N2C(C(=O)[O-])=C(C[N+]3(C)CCOC3)CSC12)c1csc(N)n1 (single isomer, unassigned) [12 Isomer A] | 0.046 (≈ 0.0953 µM) | 0.21 (≈ 0.435 µM) | 5.4 (≈ 11.2 µM) | – | 4.4 (≈ 9.12 µM) | – | 0.25 (≈ 0.518 µM) | – | MIC [4, 11]: 1.1 µg/mL (≈ 2.28 µM) |
| CO/N=C(\C(=O)NC1C(=O)N2C(C(=O)[O-])=C(C[N+]34CCN(CC3)CC4)CS[C@H]12)c1csc(N)n1 (stereo partly drawn) [Example 4, 7-[(Z)-2-(2-Aminothiazol-4-yl)-2-methoxyiminoacetamido]-3-(1,4-diazabicyclo[2,2,2]octan-1-io)methyl-3-cephem-4-carboxylate] | 0.07 (≈ 0.138 µM) | – | – | 0.16 (≈ 0.315 µM) | 5.8 (≈ 11.4 µM) | 2.9 (≈ 5.71 µM) | – | 0.8 (≈ 1.58 µM) | MIC (P. aeruginosa): 3.6 µg/mL (≈ 7.09 µM) |
| CO/N=C(\C(=O)NC1C(=O)N2C(C(=O)[O-])=C(C[N+]3(C)CCCC3C)CS[C@H]12)c1csc(N)n1 (stereo partly drawn) [Example 19, 7-[(Z)-2-(2-Aminothiazol-4-yl)-2-methoxyiminoacetamido]-3-(1,2-dimethylpyrrolidinio)methyl-3-cephem-4-carboxylate] | 0.078 (≈ 0.158 µM) | 0.27 (≈ 0.546 µM) | 6 (≈ 12.1 µM) | – | 3.8 (≈ 7.68 µM) | 1.4 (≈ 2.83 µM) | 0.27 (≈ 0.546 µM) | – | – |
| CO/N=C(\C(=O)NC1C(=O)N2C(C(=O)[O-])=C(C[N+]3(C)CCc4scnc4C3)CS[C@H]12)c1csc(N)n1 (stereo partly drawn) [Example 6, 7-[(Z)-2-(2-Aminothiazol-4-yl)-2-methoxyiminoacetamido]-3-(5-methyl-4,5,6,7-tetrahydro-5-thiazolo[4,5-c]pyridinio)methyl-3-cephem-4-carboxylate] | – | – | 4.2 (≈ 7.64 µM) | 0.15 (≈ 0.273 µM) | 3.2 (≈ 5.82 µM) | 0.9 (≈ 1.64 µM) | – | 0.4 (≈ 0.728 µM) | MIC [1]: 0.025 µg/mL (≈ 0.0455 µM) |
| CO/N=C(\C(=O)NC1C(=O)N2C(C(=O)[O-])=C(C[N+]3(C)CCC[C@H]3C(N)=O)CSC12)c1csc(N)n1 (single isomer, unassigned) [8 Isomer B] | – | – | – | 0.2 (≈ 0.382 µM) | – | – | – | 0.23 (≈ 0.439 µM) | Geometric Mean of MIC [1, 5]: 0.057 µg/mL; Geometric Mean of MIC (P. aeruginosa; [6]): 7.2 µg/mL; Geometric Mean of MIC (PCresistant S. aureus; [7]): 4.1 µg/mL; Geometric Mean of MIC [4, 10]: 1.6 µg/mL |
| CO/N=C(\C(=O)NC1C(=O)N2C(C(=O)[O-])=C(C[N+]3(C)CCc4nc(N)sc4C3)CSC12)c1csc(N)n1 (stereo not drawn) [Example 15, 7-[(Z)-2-(2-Aminothiazol-4-yl)-2-methoxyiminoacetamido]-3-[(2-amino-4,5,7-tetrahydro-6-methyl-6-thiazolo[5,4-c]pyridinio)methyl]-3-cephem-4-carboxylate] | 0.034 (≈ 0.0602 µM) | 0.18 (≈ 0.319 µM) | 4.6 (≈ 8.15 µM) | 0.16 (≈ 0.283 µM) | 2.8 (≈ 4.96 µM) | – | – | – | MIC [4, 11]: 1.1 µg/mL (≈ 1.95 µM) |
| CO/N=C(\C(=O)NC1C(=O)N2C(C(=O)[O-])=C(C[N+]3(C)CC=CC3)CS[C@H]12)c1csc(N)n1 (stereo partly drawn) [Example 11, 7-[(Z)-2-(2-Aminothiazol-4-yl)-2-methoxyiminoacetamido]-3-(1-methyl-3-pyrrolinio)methyl-3-cephem-4-carboxylate] | 0.019 (≈ 0.0397 µM) | 0.15 (≈ 0.313 µM) | – | 0.17 (≈ 0.355 µM) | 2.1 (≈ 4.39 µM) | 0.78 (≈ 1.63 µM) | – | – | MIC (P. aeruginosa): 2.5 µg/mL (≈ 5.22 µM) |
| CO/N=C(\C(=O)NC1C(=O)N2C(C(=O)[O-])=C(C[N+]3(C)CCC(O)C3)CS[C@H]12)c1csc(N)n1 (stereo partly drawn) [Example 9, 7-[(Z)-2-(2-Aminothiazol-4-yl)-2-methoxyiminoacetamido]-3-(3-hydroxy-1-methylpyrrolidinio)methyl-3-cephem-4-carboxylate] | 0.27 (≈ 0.544 µM) | – | 2.9 (≈ 5.84 µM) | 0.14 (≈ 0.282 µM) | 3.3 (≈ 6.65 µM) | – | – | 0.14 (≈ 0.282 µM) | MIC [4, 11]: 1.3 µg/mL (≈ 2.62 µM) |
| CC[N+]1(CC2=C(C(=O)[O-])N3C(=O)C(NC(=O)/C(=N\OC)c4csc(N)n4)[C@H]3SC2)CCCC1 (stereo partly drawn) [Example 10, 7-[(Z)-2-(2-Aminothiazol-4-yl)-2-methoxyiminoacetamido]-3-(1-ethylpyrrolidinio)methyl-3-cephem-4-carboxylate] | – | 0.13 (≈ 0.263 µM) | 3.1 (≈ 6.27 µM) | – | – | – | 0.13 (≈ 0.263 µM) | – | MIC [1]: 0.037 µg/mL (≈ 0.0748 µM); MIC (PCresistant S. aureus): 2 µg/mL (≈ 4.04 µM); MIC [4, 11]: 1 µg/mL (≈ 2.02 µM) |
